{"source": "patent US20070027127A1", "about": "“Treatment of inflammatory oral diseases with a combination of inhibitors of TNF-alpha and immunosuppressive agents” (priority 2000, published 2007)", "system": "major RAS (recurrent aphthous stomatitis) mouth ulcers", "assay": "Clinical example: treatment of a human patient with longstanding major RAS", "assay_type": "in vivo", "description": "There follows a description of the successful treatment of a human patient according to the invention.\nThe patient was a healthy person who had longstanding major RAS. The ulcers were located throughout the patient's mouth and oropharynx. […] The patient, prior to this visit, had been treated with numerous forms of conventional therapy, including systemic steroids and other pharmaceutical agents. All treatments had failed.\nThe patient was treated according to the invention as follows. The patient was given PTX tablets (one 400 mg tablet per day), combined with a rinse of the topical steroid DECADRON®.", "data": [{"molecule": "CC(=O)CCCCn1c(=O)c2c(ncn2C)n(C)c1=O", "note": "[PTX, 3,7-Dihydro-3,7-dimethyl-1-(5-oxohexyl)-1H-purine-2,6-dione]", "values": [{"measurement": "Mouth ulcer status reported by the patient", "setting": "approximately six months after initial treatment with PTX tablets plus DECADRON® rinse, then topical DECADRON® rinse on individual lesions", "value": "completely without mouth ulcers for the first time in eight years"}, {"measurement": "Resolution of the patient's major lesions", "setting": "one patient, major RAS, PTX tablets (one 400 mg tablet per day) combined with a DECADRON® rinse, prior conventional therapies failed", "value": "completely resolved all of the patient's major lesions"}]}]}
